Reference: PubChem BioAssay (NCI)
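48-hour exposure; five concentrations; linearly interpolated endpoints. TGI marks complete inhibition of growth.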

Tests used:
Assay in all cases: DTP human tumour cell line panel, 48 h
786-0 renal = test system: 786-0 renal
A498 renal = test system: A498 renal
A549 NSCLC = test system: A549 NSCLC
ACHN renal = test system: ACHN renal
BT-549 breast = test system: BT-549 breast
CAKI-1 renal = test system: CAKI-1 renal
CCRF-CEM leukemia = test system: CCRF-CEM leukemia
COLO 205 colon = test system: COLO 205 colon
DU-145 prostate = test system: DU-145 prostate
EKVX NSCLC = test system: EKVX NSCLC
HCC-2998 colon = test system: HCC-2998 colon
HCT-116 colon = test system: HCT-116 colon
HCT-15 colon = test system: HCT-15 colon
HL-60(TB) leukemia = test system: HL-60(TB) leukemia
HOP-62 NSCLC = test system: HOP-62 NSCLC
HOP-92 NSCLC = test system: HOP-92 NSCLC
HS 578T breast = test system: HS 578T breast
HT29 colon = test system: HT29 colon
IGROV1 ovarian = test system: IGROV1 ovarian
K-562 leukemia = test system: K-562 leukemia
KM12 colon = test system: KM12 colon
LOX IMVI melanoma = test system: LOX IMVI melanoma
M14 melanoma = test system: M14 melanoma
MALME-3M melanoma = test system: MALME-3M melanoma
MCF7 breast = test system: MCF7 breast
MDA-MB-231 breast = test system: MDA-MB-231 breast
MDA-MB-435 = test system: MDA-MB-435
MDA-N = test system: MDA-N
MOLT-4 leukemia = test system: MOLT-4 leukemia
NCI-H226 lung = test system: NCI-H226 lung
NCI-H23 lung = test system: NCI-H23 lung
NCI-H460 lung = test system: NCI-H460 lung
NCI-H522 lung = test system: NCI-H522 lung
NCI/ADR-RES ovarian = test system: NCI/ADR-RES ovarian
OVCAR-3 ovarian = test system: OVCAR-3 ovarian
OVCAR-4 ovarian = test system: OVCAR-4 ovarian
OVCAR-5 ovarian = test system: OVCAR-5 ovarian
OVCAR-8 ovarian = test system: OVCAR-8 ovarian
PC-3 prostate = test system: PC-3 prostate
RPMI-8226 leukemia = test system: RPMI-8226 leukemia
RXF 393 renal = test system: RXF 393 renal
SF-268 CNS = test system: SF-268 CNS
SF-295 CNS = test system: SF-295 CNS
SF-539 CNS = test system: SF-539 CNS
SK-MEL-2 melanoma = test system: SK-MEL-2 melanoma
SK-MEL-28 melanoma = test system: SK-MEL-28 melanoma
SK-MEL-5 melanoma = test system: SK-MEL-5 melanoma
SK-OV-3 ovarian = test system: SK-OV-3 ovarian
SN12C renal = test system: SN12C renal
SNB-19 CNS = test system: SNB-19 CNS
SNB-75 CNS = test system: SNB-75 CNS
SR leukemia = test system: SR leukemia
SW-620 colon = test system: SW-620 colon
T-47D breast = test system: T-47D breast
TK-10 renal = test system: TK-10 renal
U251 CNS = test system: U251 CNS
UACC-257 melanoma = test system: UACC-257 melanoma
UACC-62 melanoma = test system: UACC-62 melanoma
UO-31 renal = test system: UO-31 renal

Compound: C[C@@]1(CCCCCCCCCCc2ccccc2)C[C@@]2(C)OC(=O)C[C@H]2OO1
- TGI (786-0 renal): 32.9 µM
- TGI (A498 renal): 40.8 µM
- TGI (A549 NSCLC): > 84.6 µM
- TGI (ACHN renal): 4.88 µM
- TGI (BT-549 breast): 0.979 µM
- TGI (CAKI-1 renal): > 84.1 µM
- TGI (CCRF-CEM leukemia): 3.34 µM
- TGI (COLO 205 colon): 3.37 µM
- TGI (DU-145 prostate): > 4.64 µM
- TGI (EKVX NSCLC): 7.2 µM
- TGI (HCC-2998 colon): 3.41 µM
- TGI (HCT-116 colon): 32.5 µM
- TGI (HCT-15 colon): 44.3 µM
- TGI (HL-60(TB) leukemia): 35.8 µM
- TGI (HOP-62 NSCLC): 35.3 µM
- TGI (HOP-92 NSCLC): 2.16 µM
- TGI (HS 578T breast): 7.13 µM
- TGI (HT29 colon): 31.5 µM
- TGI (IGROV1 ovarian): 53.3 µM
- TGI (K-562 leukemia): 13.6 µM
- TGI (KM12 colon): 38.6 µM
- TGI (LOX IMVI melanoma): 34.6 µM
- TGI (M14 melanoma): 2.98 µM
- TGI (MALME-3M melanoma): 3 µM
- TGI (MCF7 breast): 35 µM
- TGI (MDA-MB-231 breast): 36.4 µM
- TGI (MDA-MB-435): 3.4 µM
- TGI (MDA-N): 3.96 µM
- TGI (MOLT-4 leukemia): 2.88 µM
- TGI (NCI-H226 lung): 10.9 µM
- TGI (NCI-H23 lung): 2.9 µM
- TGI (NCI-H460 lung): 5.06 µM
- TGI (NCI-H522 lung): 4.12 µM
- TGI (NCI/ADR-RES ovarian): 55.8 µM
- TGI (OVCAR-3 ovarian): 34.6 µM
- TGI (OVCAR-4 ovarian): 5.03 µM
- TGI (OVCAR-5 ovarian): 3.94 µM
- TGI (OVCAR-8 ovarian): 31.7 µM
- TGI (PC-3 prostate): 4.41 µM
- TGI (RPMI-8226 leukemia): 5.36 µM
- TGI (RXF 393 renal): 54.3 µM
- TGI (SF-268 CNS): 7.95 µM
- TGI (SF-295 CNS): 4.97 µM
- TGI (SF-539 CNS): 2.58 µM
- TGI (SK-MEL-2 melanoma): 45 µM
- TGI (SK-MEL-28 melanoma): 4.2 µM
- TGI (SK-MEL-5 melanoma): 2.26 µM
- TGI (SK-OV-3 ovarian): 73.3 µM
- TGI (SN12C renal): 10.4 µM
- TGI (SNB-19 CNS): 5.24 µM
- TGI (SNB-75 CNS): 6.79 µM
- TGI (SR leukemia): 2.97 µM
- TGI (SW-620 colon): 40.7 µM
- TGI (T-47D breast): 7.32 µM
- TGI (TK-10 renal): 7.28 µM
- TGI (U251 CNS): 33.1 µM
- TGI (UACC-257 melanoma): 4.55 µM
- TGI (UACC-62 melanoma): 4.35 µM
- TGI (UO-31 renal): 49.9 µM

Compound: Oc1c(CN2CCCC2)ccc2cccnc12
- TGI (786-0 renal): > 100 µM
- TGI (A498 renal): > 70.3 µM
- TGI (A549 NSCLC): > 100 µM
- TGI (ACHN renal): 59.5 µM
- TGI (BT-549 breast): > 100 µM
- TGI (CAKI-1 renal): 60.8 µM
- TGI (CCRF-CEM leukemia): > 73.6 µM
- TGI (COLO 205 colon): 71.5 µM
- TGI (DU-145 prostate): > 100 µM
- TGI (EKVX NSCLC): > 100 µM
- TGI (HCC-2998 colon): > 100 µM
- TGI (HCT-116 colon): > 100 µM
- TGI (HCT-15 colon): > 41.2 µM
- TGI (HL-60(TB) leukemia): > 53.9 µM
- TGI (HOP-62 NSCLC): > 65.8 µM
- TGI (HOP-92 NSCLC): > 100 µM
- TGI (HS 578T breast): > 100 µM
- TGI (HT29 colon): > 69 µM
- TGI (IGROV1 ovarian): > 84.5 µM
- TGI (K-562 leukemia): > 100 µM
- TGI (KM12 colon): > 100 µM
- TGI (LOX IMVI melanoma): 60.5 µM
- TGI (M14 melanoma): 80.7 µM
- TGI (MALME-3M melanoma): > 100 µM
- TGI (MCF7 breast): > 100 µM
- TGI (MDA-MB-231 breast): > 100 µM
- TGI (MDA-MB-435): > 100 µM
- TGI (MDA-N): > 100 µM
- TGI (MOLT-4 leukemia): > 100 µM
- TGI (NCI-H226 lung): > 64 µM
- TGI (NCI-H23 lung): 99.6 µM
- TGI (NCI-H460 lung): > 84.6 µM
- TGI (NCI-H522 lung): > 100 µM
- TGI (NCI/ADR-RES ovarian): 8.23 µM
- TGI (OVCAR-3 ovarian): > 82.7 µM
- TGI (OVCAR-4 ovarian): > 100 µM
- TGI (OVCAR-5 ovarian): > 100 µM
- TGI (OVCAR-8 ovarian): 32.4 µM
- TGI (PC-3 prostate): > 100 µM
- TGI (RPMI-8226 leukemia): 48.2 µM
- TGI (RXF 393 renal): > 100 µM
- TGI (SF-268 CNS): > 100 µM
- TGI (SF-295 CNS): > 100 µM
- TGI (SF-539 CNS): > 78.5 µM
- TGI (SK-MEL-2 melanoma): > 95.6 µM
- TGI (SK-MEL-28 melanoma): > 100 µM
- TGI (SK-MEL-5 melanoma): > 67.7 µM
- TGI (SK-OV-3 ovarian): > 96.2 µM
- TGI (SN12C renal): > 83.5 µM
- TGI (SNB-19 CNS): > 31.6 µM
- TGI (SNB-75 CNS): > 100 µM
- TGI (SR leukemia): > 100 µM
- TGI (SW-620 colon): > 100 µM
- TGI (T-47D breast): > 100 µM
- TGI (TK-10 renal): 88.7 µM
- TGI (U251 CNS): > 100 µM
- TGI (UACC-257 melanoma): > 100 µM
- TGI (UACC-62 melanoma): > 100 µM
- TGI (UO-31 renal): 14.1 µM

Compound: C/C=C1/CN2CCC34c5ccccc5N(C)C23C2CC1C4(C(=O)OC)C(OC(C)=O)O2 (stereo not given)
- TGI (786-0 renal): > 100 µM
- TGI (A498 renal): > 100 µM
- TGI (A549 NSCLC): > 100 µM
- TGI (ACHN renal): > 100 µM
- TGI (BT-549 breast): > 100 µM
- TGI (CAKI-1 renal): > 100 µM
- TGI (CCRF-CEM leukemia): > 100 µM
- TGI (COLO 205 colon): > 100 µM
- TGI (DU-145 prostate): > 100 µM
- TGI (EKVX NSCLC): > 100 µM
- TGI (HCC-2998 colon): > 100 µM
- TGI (HCT-116 colon): > 100 µM
- TGI (HCT-15 colon): > 100 µM
- TGI (HL-60(TB) leukemia): > 100 µM
- TGI (HOP-62 NSCLC): > 100 µM
- TGI (HOP-92 NSCLC): > 100 µM
- TGI (HS 578T breast): > 100 µM
- TGI (HT29 colon): > 100 µM
- TGI (IGROV1 ovarian): > 100 µM
- TGI (K-562 leukemia): > 100 µM
- TGI (KM12 colon): > 100 µM
- TGI (LOX IMVI melanoma): > 100 µM
- TGI (M14 melanoma): > 100 µM
- TGI (MCF7 breast): > 100 µM
- TGI (MDA-MB-231 breast): > 100 µM
- TGI (MDA-MB-435): > 100 µM
- TGI (MDA-N): > 100 µM
- TGI (MOLT-4 leukemia): > 100 µM
- TGI (NCI-H226 lung): > 100 µM
- TGI (NCI-H23 lung): > 100 µM
- TGI (NCI-H460 lung): > 100 µM
- TGI (NCI-H522 lung): > 100 µM
- TGI (NCI/ADR-RES ovarian): > 100 µM
- TGI (OVCAR-3 ovarian): > 100 µM
- TGI (OVCAR-4 ovarian): > 100 µM
- TGI (OVCAR-5 ovarian): > 100 µM
- TGI (OVCAR-8 ovarian): > 100 µM
- TGI (PC-3 prostate): > 100 µM
- TGI (RPMI-8226 leukemia): > 100 µM
- TGI (SF-268 CNS): > 100 µM
- TGI (SF-295 CNS): > 100 µM
- TGI (SF-539 CNS): > 100 µM
- TGI (SK-MEL-2 melanoma): > 100 µM
- TGI (SK-MEL-28 melanoma): > 100 µM
- TGI (SK-MEL-5 melanoma): > 100 µM
- TGI (SK-OV-3 ovarian): > 100 µM
- TGI (SN12C renal): > 100 µM
- TGI (SNB-19 CNS): > 100 µM
- TGI (SNB-75 CNS): > 100 µM
- TGI (SR leukemia): > 100 µM
- TGI (SW-620 colon): > 100 µM
- TGI (T-47D breast): > 100 µM
- TGI (TK-10 renal): > 100 µM
- TGI (U251 CNS): > 100 µM
- TGI (UACC-257 melanoma): > 100 µM
- TGI (UACC-62 melanoma): > 100 µM
- TGI (UO-31 renal): > 100 µM
